Residues, ends and D or L forms follow the SMILES beside them.
Assays:
TYRP1 = assay: Expression of melanogenesis genes in NHM (qRTPCR): TYRP1; format: cell-based, human; settings: 72 h, vs control, n = 4
Description: NHM are cultivated and brought into contact with the peptide according to the invention or its solvent. At the end of 72 h of contact, the melanocytes are crushed, and the mRNAs are recovered, converted into cDNA which are analyzed by qRTPCR, to estimate the changes in the expression level of the mRNAs. The expression of the following genes has been studied: MITF, TYRP1 and CREB.

[1] = system: grey/white hair of volunteers; assay: In-vivo grey/white hair density in volunteers (standardized photos, Image J image analysis); set-up: species or system human
Description: (§1) The in-vivo tests were carried out by applying the hair lotion described above in point 1) in the Galenic part. This lotion comprises 90 ppm of the peptide of the invention. Four independent studies were conducted with a total of 84 volunteers (average age of the entire panel of selected volunteers was 42 years). All four studies were conducted over a wide range of geographical locations, times, seasons, application sites, phototypes and methods. The details are specified in the below table.
All the studies used a complex photographic system, with the camera mounted on a bench to ensure perfect repositioning of the volunteer's head at all study times. For each volunteer, profile photos, and in some studies also of the back or the top of the head, were taken in cross-polarized mode to eliminate any parasitic shine so as not to interfere with the image analysis photo treatment. These photos are used to both get an overview of the grey hair intensity and, by their quality, to work on a smaller isolated area.
The evaluation of the area occupied by grey/white hair was made in the photos with the NIH-USA™ Image J software by targeting the areas of interest.
Commonly, a short hair size (2 cm for example) was requested, except for test site 2, and that this size be the same for a volunteer at different measurement times to facilitate before-after comparisons.
Also, in common, each original photo, in color, was converted to an image with grey levels, the same level filter (thresholding operation) was applied before and after to the photos of the same volunteer. Non-black hair where thus selected. At the end, a binarization operation (black/white) was carried out to separate the non-black hairs (grey and white) from the blacks and to quantify the former.

[2] = In-vivo tolerance: adverse effects reported by the volunteers; set-up: species or system human
Description: as §1

[3] = system: melanocyte dendrites (NHM); assay: Length of melanocyte dendrites (antibody labelling, image analysis); format: cell-based, human; settings: 48 hours, vs control, n = 3
Description: The cells are brought into contact with the peptide according to the invention for 48 hours. Then the melanocyte layers, once rinsed, are labeled using an antibody. The area occupied by the dendrites are obtain by image analysis on the photos taken, a parameter converted into the relative dendrite length/100 cells. At the same time, the cell nuclei are counterstained using Hoescht 33258 fluorescent dye to estimate the cell number and to harmonize the data.

[4] = system: white and non-white hairs of volunteers; assay: In-vivo non-white/white hair ratio by TrichoScan micro-photos; set-up: species or system human; settings: lotion 90 ppm, 18 volunteers, temples, T 4 m
Description: as §1
Only one study (at site 2) used this technology (a new tool for analyzing hair growth) which has the advantage of providing data on a very small area and seeing the hair individually. The scalp area is identified and shaved a few days before the photo, and this at different times. Widely used for the study of hair loss, with this technology, thanks to its high magnification, it is also possible to work on hair coloring. The TrichoScan® system includes an epiluminescence microcamera system.
2.4—Evaluation of the Number of White Hairs and Non-White Hairs The TrichoScan® software was used to determine the number of white hairs, the number of black hairs and the calculation of the black/white ratio. This ratio increases with the number of dark hairs when the treatment acts.

[5] = system: Normal human melanocytes (NHM); assay: Reduction of the ROS quantity in NHM (DCFH-DA probe, with or without H2O2 stress); format: cell-based; settings: for ROS quantity, variation: 24 h, vs control, n = 3
Description: Normal human melanocytes (NHM) almost at confluence are brought into contact with the peptide according to the invention for 24 hours. At the end of this contact, the cells are contacted with a DCFH-DA probe which is inserted into these cells. After rinsing to remove the excess probe, the cells are placed in contact with H2O2 to mimic oxidative stress. A case without oxidative stress is also realized. The reaction of H2O2 with the probe in the cell is measured by fluorescence. An estimate of the quantity of cells is carried out in parallel to harmonize the results.

[6] = 7 volunteers, behind the head, T 3 m
[7] = 7 volunteers, behind the head, T 6 m (3 months after the last application)
[8] = 10 volunteers, top of the head, T 4 m
[9] = 10 volunteers, top of the head, T 8 m (4 months after the last application)
[10] = lotion 90 ppm, 5 ml/d, 17 volunteers, one side (profile), T 3 m
[11] = lotion 90 ppm, 5 ml/d, 21 volunteers, behind the head, T 3 m
[12] = lotion 90 ppm, 5 ml/d, 21 volunteers, one side (profile)/temple, T 3 m
[13] = lotion 90 ppm, 5 ml/d, 25 volunteers, one side (profile), T 3 m
[14] = lotion 90 ppm, 5 ml/d, site 2, 18 volunteers, top of the head, T 4 m
[15] = lotion 90 ppm, 5 ml/d, site 2, 19 volunteers, top of the head, T3 m
[16] = lotion 90 ppm, 17 volunteers, one side (profile), T 3 m
[17] = lotion 90 ppm, 21 volunteers, behind the head, T 3 m
[18] = lotion 90 ppm, 21 volunteers, one side (profile)/temple, T 3 m
[19] = lotion 90 ppm, 25 volunteers, one side (profile), T 3 m

Structure (SMILES): CCCCCCCCCCCCCCCC(=O)N1CCC[C@H]1C(=O)N1CCC[C@H]1C(=O)O [Pal-PP-OH, palmitoyl-prolyl-proline] (HELM PEPTIDE1{[CCCCCCCCCCCCCCCC(=O)[*:2]].P.P}$$$$V2.0)
- variation in the expression of TYRP1 gene (TYRP1; 10 ppm): +42%; p < 0.01
- variation in the expression of TYRP1 gene (TYRP1; 12.5 ppm): +54%; p < 0.01
- Grey hair density, Maximum [1, 6]: −70%
- Grey hair density, Repondents [1, 6]: 100%
- Grey hair density, Moyenne (%) ([1]; 7 volunteers, behind the head, T 3 m (end of 3 months of application)): 3.14%
- Grey hair density, Maximum [1, 7]: −60%
- Grey hair density, Moyenne (%) [1, 7]: 3.00%
- Grey hair density, Repondents [1, 7]: 100%
- Grey hair density, Maximum [1, 8]: −22%
- Grey hair density, Repondents [1, 8]: 100%
- Grey hair density, Moyenne (%) ([1]; 10 volunteers, top of the head, T 4 m (end of 4 months of application)): 39.36%
- Grey hair density, Variation vs. T0 ([1]; 10 volunteers, top of the head, T 4 m (end of 4 months of application), listed as peptide according to the invention): −15.04%
- Grey hair density, Maximum [1, 9]: −45%
- Grey hair density, Moyenne (%) [1, 9]: 36.04%
- Grey hair density, Repondents [1, 9]: 80%
- Grey hair density, Variation vs. T0 ([1]; 10 volunteers, top of the head, T 8 m (4 months after the last application), listed as peptide according to the invention): −22.20%
- decrease of the grey hair density on the temples, on average (3 tests) ([1]; after 3 months of application): 32.4%
- decrease of the grey hair density ([1]; after 3 months of application, back of the head, 21 volunteers): 31.9%
- decrease of the grey hair density ([1]; after 3 months of application, temples, 21 volunteers): 37.5%
- Grey hair density, Mean (%) [1, 10]: 7.50%
- Grey hair density, Variation vs. T0 [1, 10]: −21.1%
- Grey hair density, Mean (%) [1, 11]: 3.28%
- Grey hair density, Variation vs. T0 [1, 11]: −31.9%
- Grey hair density, Mean (%) [1, 12]: 4.78%
- Grey hair density, Variation vs. T0 [1, 12]: −37.5%
- Grey hair density, Mean (%) [1, 13]: 1.90%
- Grey hair density, Variation vs. T0 [1, 13]: −38.7%
- Grey hair density, Mean (%) [1, 14]: 39.78%
- Grey hair density, Variation vs. T0 [1, 14]: −10.90%
- Grey hair density, Mean (%) [1, 15]: 40.22%
- Grey hair density, Variation vs. T0 [1, 15]: −8.80%
- Grey hair density, Maximum variation [1, 16]: −67%
- Grey hair density, respondents [1, 16]: 76%
- Grey hair density, Maximum variation [1, 17]: −70%
- Grey hair density, respondents [1, 17]: 95%
- Grey hair density, Maximum variation [1, 18]: −70%
- Grey hair density, respondents [1, 18]: 100%
- Grey hair density, Maximum variation [1, 19]: −86%
- Grey hair density, respondents [1, 19]: 68%
- Grey hair density, respondents, mean of 3 studies ([1]; lotion 90 ppm, column Mean T 3 m vs. T0, one side (profile)): 81%
- Grey hair density, Variation vs. T0, Mean T 3 m vs. T0 of 3 studies ([1]; lotion 90 ppm, mean of the 3 studies (21, 25, 17 volunteers), one side (profile), T 3 m): −32.43%
- Grey hair density, Maximum ([1]; lotion 90 ppm, site 2, 18 volunteers, top of the head, T 4 m): −23%
- Grey hair density, respondents ([1]; lotion 90 ppm, site 2, 18 volunteers, top of the head, T 4 m, listed as peptide according to the invention): 84%
- Grey hair density, Maximum ([1]; lotion 90 ppm, site 2, 19 volunteers, top of the head, T3 m): −26%
- Grey hair density, respondents ([1]; lotion 90 ppm, site 2, 19 volunteers, top of the head, T3 m, listed as peptide according to the invention): 79%
- decrease in grey/white hair ([1]; top of the head, T 3 months): 8.8%
- decrease in grey/white hair ([1]; top of the head, after 4 months of use): 10.9%
- negative feedbacks ([2]; 3 months after the last application): no negative feedbacks
- adverse effects ([2]; lotion 90 ppm, at 3 or 4 months): No adverse effects were reported
- Lenght of the dendrites, Variation (%) ([3]; 5 ppm): +20%; p < 0.01
- Lenght of the dendrites, Variation (%) ([3]; 10 ppm): +33%; p < 0.01
- Lenght of the dendrites, Variation (%) ([3]; 15 ppm): +57%; p < 0.01
- non-white/white hair Ratio, Maximum (variation) [4]: +385%
- non-white/white hair Ratio, Mean [4]: 2.56
- non-white/white hair Ratio, respondents [4]: 72%
- non-white/white hair Ratio, % Variation vs. T0 ([4]; listed as peptide according to the invention): approximately +27.4%
- non-white/white hair Ratio, % Variation vs. T0 ([4]; listed as peptide of the invention): +27.4%
- ROS quantity, variation ([5]; 10 ppm, after the H2O2 stress): −25%; p < 0.01
- ROS quantity, variation ([5]; 10 ppm, without H2O2 stress (basal state)): −23%; p < 0.01
- ROS quantity, variation ([5]; 12.5 ppm, after the H2O2 stress): −33%; p < 0.01
- ROS quantity, variation ([5]; 12.5 ppm, without H2O2 stress (basal state)): −24%; p < 0.01
- reduction of the production of intracellular peroxide ([5]; during oxidative stress, vs. control): 33%
